Experimental data reported in PubChem BioAssay (NCI).
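Following 48 hours of exposure in 96-well plates, responses at five concentrations were used to interpolate endpoints linearly. TGI: total growth inhibition.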

Legend:
Test in all cases: DTP human tumour cell line panel, 48 h
MDA-MB-231 breast = test system: MDA-MB-231 breast
UACC-257 melanoma = test system: UACC-257 melanoma
HCT-116 colon = test system: HCT-116 colon
SNB-19 CNS = test system: SNB-19 CNS
HOP-62 NSCLC = test system: HOP-62 NSCLC
SK-OV-3 ovarian = test system: SK-OV-3 ovarian
SF-295 CNS = test system: SF-295 CNS
SF-268 CNS = test system: SF-268 CNS
NCI-H460 lung = test system: NCI-H460 lung
LOX IMVI melanoma = test system: LOX IMVI melanoma
UACC-62 melanoma = test system: UACC-62 melanoma
CCRF-CEM leukemia = test system: CCRF-CEM leukemia
SF-539 CNS = test system: SF-539 CNS
NCI/ADR-RES ovarian = test system: NCI/ADR-RES ovarian
NCI-H23 lung = test system: NCI-H23 lung
OVCAR-5 ovarian = test system: OVCAR-5 ovarian
NCI-H226 lung = test system: NCI-H226 lung
MCF7 breast = test system: MCF7 breast
MDA-N = test system: MDA-N
OVCAR-8 ovarian = test system: OVCAR-8 ovarian
CAKI-1 renal = test system: CAKI-1 renal
OVCAR-4 ovarian = test system: OVCAR-4 ovarian
SK-MEL-5 melanoma = test system: SK-MEL-5 melanoma
K-562 leukemia = test system: K-562 leukemia
MALME-3M melanoma = test system: MALME-3M melanoma
SR leukemia = test system: SR leukemia
T-47D breast = test system: T-47D breast
TK-10 renal = test system: TK-10 renal
ACHN renal = test system: ACHN renal
HCT-15 colon = test system: HCT-15 colon
SN12C renal = test system: SN12C renal
PC-3 prostate = test system: PC-3 prostate
A549 NSCLC = test system: A549 NSCLC
A498 renal = test system: A498 renal
HOP-92 NSCLC = test system: HOP-92 NSCLC
SK-MEL-28 melanoma = test system: SK-MEL-28 melanoma
COLO 205 colon = test system: COLO 205 colon
DU-145 prostate = test system: DU-145 prostate
MDA-MB-435 = test system: MDA-MB-435
OVCAR-3 ovarian = test system: OVCAR-3 ovarian
EKVX NSCLC = test system: EKVX NSCLC
M14 melanoma = test system: M14 melanoma
KM12 colon = test system: KM12 colon
UO-31 renal = test system: UO-31 renal
786-0 renal = test system: 786-0 renal
SK-MEL-2 melanoma = test system: SK-MEL-2 melanoma
HS 578T breast = test system: HS 578T breast
MOLT-4 leukemia = test system: MOLT-4 leukemia
RPMI-8226 leukemia = test system: RPMI-8226 leukemia
HT29 colon = test system: HT29 colon
SW-620 colon = test system: SW-620 colon
U251 CNS = test system: U251 CNS
IGROV1 ovarian = test system: IGROV1 ovarian
SNB-75 CNS = test system: SNB-75 CNS
RXF 393 renal = test system: RXF 393 renal
NCI-H522 lung = test system: NCI-H522 lung
BT-549 breast = test system: BT-549 breast
HCC-2998 colon = test system: HCC-2998 colon
HL-60(TB) leukemia = test system: HL-60(TB) leukemia

Measured: TGI

CCOC(=O)[C@@]12C[C@](/C=C/OC)(O[Si](C)(C)C)[C@@]13c1cc(OC)c(OC)cc1CCN3C(=O)C2O (stereo not given in full)
not listed: NCI-H522 lung | BT-549 breast | HCC-2998 colon | HL-60(TB) leukemia
> 100 µM: all other assays above

COC(=O)/C=C1/CCC(C)(C(=O)NS(=O)(=O)c2ccc(C)cc2)C1(C)C (stereo not given)
not listed: SR leukemia | HS 578T breast | HT29 colon | SNB-75 CNS
> 100 µM: all other assays above
